Measurements reported in patent US9738634B2, “Heterocyclic amide compound and herbicide” (SYNGENTA PARTICIPATIONS AG, priority 2013, dated 2017).

Tests used:
Assay type in all cases: in vivo
Details in all cases: treatment dosage 320 g/ha
soybean [1] = assay: Test Example 4: foliar treatment, effect on crop; d: soybean
Outline: (§1)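 Seeds are spot-sown into sterilized diluvial soil and covered with about 1.5 cm of soil. After 14 days' greenhouse growth at 25 to 30° C, plants are sprayed on stems and leaves with diluted emulsion at the stated g/ha rate, then scored at 3 weeks.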

fig-leafed goosefoot = assay: Test Example 4: weedkilling efficacy by foliar treatment; M: fig-leafed goosefoot
Outline: as §1

redroot pigweed [2] = assay: Test Example 3: weedkilling efficacy through soil treatment; L: redroot pigweed
Outline: (§2)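 Crop and weed responses were judged three weeks after a uniform surface spray of the water-diluted emulsion at the given g/ha rate. Seeds sat beneath about 1.5 cm of sterilized diluvial soil, and boxes stood in a greenhouse at 25 to 30° C.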

rapeseed [3] = assay: Test Example 3: soil treatment, effect on crop; g: rapeseed
Outline: as §2

wheat [4] = assay: Test Example 3: soil treatment, effect on crop; e: wheat
Outline: as §2

Italian ryegrass [5] = assay: Test Example 4: weedkilling efficacy by foliar treatment; I: Italian ryegrass
Outline: as §1

Indian mallow [6] = assay: Test Example 3: weedkilling efficacy through soil treatment; K: Indian mallow
Outline: as §2

green foxtail [7] = assay: Test Example 3: weedkilling efficacy through soil treatment; E: green foxtail
Outline: as §2

soybean [8] = assay: Test Example 3: soil treatment, effect on crop; d: soybean
Outline: as §2

birds-eye speedwell [9] = assay: Test Example 3: weedkilling efficacy through soil treatment; p: birds-eye speedwell
Outline: as §2

barnyard grass [10] = assay: Test Example 2: weedkilling efficacy, growth period weed treatment in the submerged state; A: barnyard grass
Outline: (§3)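 Seedlings at 1-2 leaves in 4 cm-deep submerged alluvial soil received emulsion formulations on the water surface, dosed per hectare; effects were judged 3 weeks on.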

barnyard grass [11] = assay: Test Example 3: weedkilling efficacy through soil treatment; F: barnyard grass
Outline: as §2

beet [12] = assay: Test Example 4: foliar treatment, effect on crop; f: beet
Outline: as §1

transplanted rice = assay: Test Example 1: preemergent weed treatment in the submerged state, effect on crop; a: transplanted rice
Outline: (§4)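 Submerged pre-emergence treatment, water-surface application of compound emulsion at g/ha dosages; 4 cm flooded alluvial soil, weeds sown and 2.5-leaf rice transplanted same day. Rated after 3 weeks, greenhouse.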

wild oat [13] = assay: Test Example 4: weedkilling efficacy by foliar treatment; G: wild oat
Outline: as §1

chickweed [14] = assay: Test Example 3: weedkilling efficacy through soil treatment; N: chickweed
Outline: as §2

rapeseed [15] = assay: Test Example 4: foliar treatment, effect on crop; g: rapeseed
Outline: as §1

crabgrass [16] = assay: Test Example 3: weedkilling efficacy through soil treatment; D: crabgrass
Outline: as §2

barnyard grass [17] = assay: Test Example 4: weedkilling efficacy by foliar treatment; F: barnyard grass
Outline: as §1

catchweed [18] = assay: Test Example 3: weedkilling efficacy through soil treatment; O: catchweed
Outline: as §2

black-grass [19] = assay: Test Example 4: weedkilling efficacy by foliar treatment; H: black-grass
Outline: as §1

redroot pigweed [20] = assay: Test Example 4: weedkilling efficacy by foliar treatment; L: redroot pigweed
Outline: as §1

crabgrass [21] = assay: Test Example 4: weedkilling efficacy by foliar treatment; D: crabgrass
Outline: as §1

green foxtail [22] = assay: Test Example 4: weedkilling efficacy by foliar treatment; E: green foxtail
Outline: as §1

common wind-grass [23] = assay: Test Example 4: weedkilling efficacy by foliar treatment; J: common wind-grass
Outline: as §1

beet [24] = assay: Test Example 3: soil treatment, effect on crop; f: beet
Outline: as §2

oval-leafed pondweed [25] = assay: Test Example 1: weedkilling efficacy, preemergent weed treatment in the submerged state; C: oval-leafed pondweed
Outline: as §4

bulrush [26] = assay: Test Example 2: weedkilling efficacy, growth period weed treatment in the submerged state; B: bulrush
Outline: as §3

chickweed [27] = assay: Test Example 4: weedkilling efficacy by foliar treatment; N: chickweed
Outline: as §1

Indian mallow [28] = assay: Test Example 4: weedkilling efficacy by foliar treatment; K: Indian mallow
Outline: as §1

directly sown rice [29] = assay: Test Example 4: foliar treatment, effect on crop; b: directly sown rice
Outline: as §1

wild oat [30] = assay: Test Example 3: weedkilling efficacy through soil treatment; G: wild oat
Outline: as §2

barnyard grass [31] = assay: Test Example 1: weedkilling efficacy, preemergent weed treatment in the submerged state; A: barnyard grass
Outline: as §4

catchweed [32] = assay: Test Example 4: weedkilling efficacy by foliar treatment; O: catchweed
Outline: as §1

directly sown rice [33] = assay: Test Example 3: soil treatment, effect on crop; b: directly sown rice
Outline: as §2

common wind-grass [34] = assay: Test Example 3: weedkilling efficacy through soil treatment; J: common wind-grass
Outline: as §2

Italian ryegrass [35] = assay: Test Example 3: weedkilling efficacy through soil treatment; I: Italian ryegrass
Outline: as §2

corn [36] = assay: Test Example 3: soil treatment, effect on crop; c: corn
Outline: as §2

birds-eye speedwell [37] = assay: Test Example 4: weedkilling efficacy by foliar treatment; p: birds-eye speedwell
Outline: as §1

black-grass [38] = assay: Test Example 3: weedkilling efficacy through soil treatment; H: black-grass
Outline: as §2

bulrush [39] = assay: Test Example 1: weedkilling efficacy, preemergent weed treatment in the submerged state; B: bulrush
Outline: as §4

oval-leafed pondweed [40] = assay: Test Example 2: weedkilling efficacy, growth period weed treatment in the submerged state; C: oval-leafed pondweed
Outline: as §3

corn [41] = assay: Test Example 4: foliar treatment, effect on crop; c: corn
Outline: as §1

wheat [42] = assay: Test Example 4: foliar treatment, effect on crop; e: wheat
Outline: as §1

SMILES: CCOc1cc(C(F)(F)F)cc(NC(=O)C(C)(C)N2COC(C)=C(c3ccccc3)C2=O)n1 [B-2-50]
- d (soybean) effect on crop grade (soybean [1]): 0 (weed kill ratio 5% or less (practically no effect))
- M (fig-leafed goosefoot) weedkilling efficacy grade (fig-leafed goosefoot): 3 (weed kill ratio 40% or more, less than 70%)
- L (redroot pigweed) weedkilling efficacy grade (redroot pigweed [2]): 2 (weed kill ratio 20% or more, less than 40%)
- g (rapeseed) effect on crop grade (rapeseed [3]): 0 (weed kill ratio 5% or less (practically no effect))
- e (wheat) effect on crop grade (wheat [4]): 0 (weed kill ratio 5% or less (practically no effect))
- I (Italian ryegrass) weedkilling efficacy grade (Italian ryegrass [5]): 1 (weed kill ratio 5% or more, less than 20%)
- K (Indian mallow) weedkilling efficacy grade (Indian mallow [6]): 0 (weed kill ratio 5% or less (practically no effect))
- E (green foxtail) weedkilling efficacy grade (green foxtail [7]): 5 (weed kill ratio 90% or more, (practically complete withering))
- d (soybean) effect on crop grade (soybean [8]): 0 (weed kill ratio 5% or less (practically no effect))
- P (birds-eye speedwell) weedkilling efficacy grade (birds-eye speedwell [9]): 0 (weed kill ratio 5% or less (practically no effect))
- A (barnyard grass) weedkilling efficacy grade (barnyard grass [10]): 5 (weed kill ratio 90% or more, (practically complete withering))
- F (barnyard grass) weedkilling efficacy grade (barnyard grass [11]): 4 (weed kill ratio 70% or more, less than 90%)
- f (beet) effect on crop grade (beet [12]): 0 (weed kill ratio 5% or less (practically no effect))
- a (transplanted rice) effect on crop grade (transplanted rice): 0 (weed kill ratio 5% or less (practically no effect))
- G (wild oat) weedkilling efficacy grade (wild oat [13]): 0 (weed kill ratio 5% or less (practically no effect))
- N (chickweed) weedkilling efficacy grade (chickweed [14]): 0 (weed kill ratio 5% or less (practically no effect))
- g (rapeseed) effect on crop grade (rapeseed [15]): 0 (weed kill ratio 5% or less (practically no effect))
- D (crabgrass) weedkilling efficacy grade (crabgrass [16]): 5 (weed kill ratio 90% or more, (practically complete withering))
- F (barnyard grass) weedkilling efficacy grade (barnyard grass [17]): 0 (weed kill ratio 5% or less (practically no effect))
- O (catchweed) weedkilling efficacy grade (catchweed [18]): 0 (weed kill ratio 5% or less (practically no effect))
- H (black-grass) weedkilling efficacy grade (black-grass [19]): 1 (weed kill ratio 5% or more, less than 20%)
- L (redroot pigweed) weedkilling efficacy grade (redroot pigweed [20]): 0 (weed kill ratio 5% or less (practically no effect))
- D (crabgrass) weedkilling efficacy grade (crabgrass [21]): 2 (weed kill ratio 20% or more, less than 40%)
- E (green foxtail) weedkilling efficacy grade (green foxtail [22]): 2 (weed kill ratio 20% or more, less than 40%)
- J (common wind-grass) weedkilling efficacy grade (common wind-grass [23]): 1 (weed kill ratio 5% or more, less than 20%)
- f (beet) effect on crop grade (beet [24]): 0 (weed kill ratio 5% or less (practically no effect))
- C (oval-leafed pondweed) weedkilling efficacy grade (oval-leafed pondweed [25]): 5 (weed kill ratio 90% or more, (practically complete withering))
- B (bulrush) weedkilling efficacy grade (bulrush [26]): 4 (weed kill ratio 70% or more, less than 90%)
- N (chickweed) weedkilling efficacy grade (chickweed [27]): 0 (weed kill ratio 5% or less (practically no effect))
- K (Indian mallow) weedkilling efficacy grade (Indian mallow [28]): 1 (weed kill ratio 5% or more, less than 20%)
- b (directly sown rice) effect on crop grade (directly sown rice [29]): 0 (weed kill ratio 5% or less (practically no effect))
- G (wild oat) weedkilling efficacy grade (wild oat [30]): 0 (weed kill ratio 5% or less (practically no effect))
- A (barnyard grass) weedkilling efficacy grade (barnyard grass [31]): 5 (weed kill ratio 90% or more, (practically complete withering))
- O (catchweed) weedkilling efficacy grade (catchweed [32]): 0 (weed kill ratio 5% or less (practically no effect))
- b (directly sown rice) effect on crop grade (directly sown rice [33]): 1 (weed kill ratio 5% or more, less than 20%)
- J (common wind-grass) weedkilling efficacy grade (common wind-grass [34]): 5 (weed kill ratio 90% or more, (practically complete withering))
- I (Italian ryegrass) weedkilling efficacy grade (Italian ryegrass [35]): 3 (weed kill ratio 40% or more, less than 70%)
- c (corn) effect on crop grade (corn [36]): 1 (weed kill ratio 5% or more, less than 20%)
- P (birds-eye speedwell) weedkilling efficacy grade (birds-eye speedwell [37]): 0 (weed kill ratio 5% or less (practically no effect))
- H (black-grass) weedkilling efficacy grade (black-grass [38]): 2 (weed kill ratio 20% or more, less than 40%)
- B (bulrush) weedkilling efficacy grade (bulrush [39]): 5 (weed kill ratio 90% or more, (practically complete withering))
- C (oval-leafed pondweed) weedkilling efficacy grade (oval-leafed pondweed [40]): 4 (weed kill ratio 70% or more, less than 90%)
- c (corn) effect on crop grade (corn [41]): 0 (weed kill ratio 5% or less (practically no effect))
- e (wheat) effect on crop grade (wheat [42]): 0 (weed kill ratio 5% or less (practically no effect))
